Data as given in paper PMC6152089, “Steroid Alkaloids from Holarrhena africana with Strong Activity against Trypanosoma brucei rhodesiense” (Molecules : A Journal of Synthetic Chemistry and Natural …, 2017).
“And” between values parts separate entries of the source, which are not always exact repeats. Identical values can stand only once. Like-named read-outs stand apart in the source and are kept apart here.

Assays:
[1] = system: Trypanosoma brucei rhodesiense (bloodstream trypomastigotes, STIB 900 strain); test: In vitro anti-trypanosomal activity against Tbr; assay type: cell-based
Protocol: (§1) In vitro tests for biological activity of the crude extracts, fractions, sub-fractions and isolated compounds against Trypanosoma brucei rhodesiense (bloodstream trypomastigotes, STIB 900 strain), Trypanosoma cruzi (amastigotes, Tulahuen C4 strain), Leishmania donovani (amastigotes, MHOM-ET-67/L82 strain), Plasmodium falciparum (intraerythrocytic form, NF54 strain) and cytotoxicity test against mammalian L6 cell line from rat skeletal myoblasts were performed according to the established standard protocol. However, only the activity data against Trypanosoma brucei rhodesiense is reported due to the inactivity of the tested substances against other parasites at the concentration tested.

[2] = Cytotoxicity against L6 cells; assay type: cell-based, rat; settings: rat
Protocol: as §1

[3] = system: L6 rat skeletal myoblasts; test: Cytotoxicity against L6 cells; assay type: cell-based
Protocol: as §1

[4] = Trypanosoma brucei, isolated compounds, average of two determinations ± absolute deviation, read-out: Tbr (STIB900) IC50 (µg/mL)
[5] = isolated compounds, average of two determinations ± absolute deviation, read-out: Tbr (STIB900) IC50
[6] = Trypanosoma brucei, isolated compounds, average of two determinations ± absolute deviation, read-out: Tbr (STIB900) IC50
[7] = isolated compounds, average of two determinations (a: one replicate), read-out: Cytotoxicity L6 Cells IC50
[8] = isolated compounds, average of two determinations (a: one replicate), read-out: Cytotoxicity L6 Cells IC50 (µg/mL)

Row | Compound | IC50 [1, 4] [µg/mL] | IC50 [1, 5] [nM] | IC50 [2] | IC50 [1, 6] [nM] | also measured
1 | CC(=O)[C@H]1CC[C@H]2[C@@H]3CC=C4C[C@@H](N)CC[C@]4(C)[C@H]3CC[C@]12C [Compound 1, 3β-holaphyllamine] | 0.127 ± 0.088 | 400 ± 280 | 1.61 µg/mL and 5.1 µM |  | 
2 | CC(=O)N[C@H]1CC[C@@]2(C)C(=CC[C@H]3[C@@H]4CC[C@H](C(C)=O)[C@@]4(C)CC[C@@H]32)C1 [Compound 2, holaphyllamine acetamide] | 1.73 ± 0.47 | 4830 ± 1330 | 5.49 µg/mL and 15.4 µM | 4800 to 14900 | 
3 | CN[C@H]1CC[C@@]2(C)C(=CC[C@H]3[C@@H]4CC[C@H](C(C)=O)[C@@]4(C)CC[C@@H]32)C1 [Compound 3, 3β-N-methylholaphyllamine] | 0.025 ± 0.001 | 75 ± 4 | 0.829 µg/mL and 2.48 µM | 80 ± 10 | 
4 | CC(=O)[C@H]1CC[C@H]2[C@@H]3CC=C4C[C@H](N)CC[C@]4(C)[C@H]3CC[C@]12C [Compound 4, 3α-holaphyllamine] | 0.117 ± 0.05 |  | 5 µg/mL and 15.9 µM | 370 ± 159 | 
5 | CC(=O)[C@H]1CC[C@H]2[C@@H]3CC[C@H]4C[C@@H](N)CC[C@]4(C)[C@H]3CC[C@]12C [Compound 5, 3β-dihydroholaphyllamine] | 0.213 ± 0.008 | 672 ± 27 |  | 670 ± 30 | IC50 [2, 7]: 17400 ± 1360 nM; IC50 [2, 8]: 5.51 ± 0.43 µg/mL
6 | CC(=O)[C@H]1CC[C@H]2[C@@H]3CC[C@H]4C[C@H](N)CC[C@]4(C)[C@H]3CC[C@]12C [Compound 6, 3α-dihydroholaphyllamine] | 0.382 ± 0.238 |  |  | 1210 ± 750 | IC50 [2, 7]: 17000 ± 1200 nM; IC50 [2, 8]: 5.38 ± 0.39 µg/mL
7 | C[C@H]1[C@H]2CC[C@H]3[C@@H]4CCC5=CC(=O)C=C[C@]5(C)[C@H]4CC[C@]23CN1C [Compound 7, holadienine] | 4.81 ± 0.68 |  |  | 14900 ± 2100 | 
8 | C[C@@H]1N=C[C@]23C[C@H](O)[C@H]4[C@@H](CCC5=CC(=O)C=C[C@@]54C)[C@@H]2CC[C@H]13 [Compound 8, holonamine] | 2.82 ± 0.76 |  | 21.1 µg/mL and 64.9 µM | 8670 ± 2330 | 
9 | C[C@H]1[C@H]2CC[C@H]3[C@@H]4C=CC5=CC(=O)CC[C@]5(C)[C@H]4CC[C@]23CN1C [Compound 9, cona-4,6-dienin-3-one] | 5.69 ± 0.07 |  | 41.9 µg/mL and 129 µM | 17500 ± 200 | 
10 | C[C@H]1[C@H]2CC[C@H]3[C@@H]4C(=O)C=C5C=CCC[C@]5(C)[C@H]4CC[C@]23CN1C [Compound 10, cona-3,5-dienin-7-one] | 2.4 ± 0.3 |  |  | 7370 ± 940 | IC50 [2, 7]: 41700 ± 18900 nM; IC50 [2, 8]: 13.6 ± 6.2 µg/mL
11 | C[C@@H]1NC[C@]23CC[C@H]4[C@@H](CC=C5C[C@@H](N(C)C)CC[C@@]54C)[C@@H]2CC[C@H]13 [Compound 11, conessimine] | 0.057 ± 0.028 | 167 ± 83 | 17.3 µg/mL and 50.4 µM | 170 ± 80 | 
12 | CN[C@H]1CC[C@@]2(C)C(=CC[C@H]3[C@@H]4CC[C@@H]5[C@H](C)N(C)C[C@@]54CC[C@@H]32)C1 [Compound 12, isoconessimine] | 0.056 ± 0.038 | 166 ± 112 | 9.38 µg/mL and 27.4 µM | 170 ± 110 | 
13 | C[C@H]1[C@H]2CC[C@H]3[C@@H]4CC=C5C[C@@H](N(C)C)CC[C@]5(C)[C@H]4CC[C@]23CN1C [Compound 13, conessine] | 0.149 ± 0.031 | 419 ± 87 |  | 420 ± 90 | IC50 ([2]; L6 rat skeletal myoblast cells, isolated compounds, average of two determinations (a: one replicate), read-out: Cytotoxicity L6 Cells IC50): 61200 nM; IC50 ([2]; L6 rat skeletal myoblast cells, isolated compounds, average of two determinations (a: one replicate), read-out: Cytotoxicity L6 Cells IC50 (µg/mL)): 21.8 µg/mL
14 | CN[C@H]1CC[C@@]2(C)C(=CC[C@H]3[C@@H]4CC[C@@H]5[C@H](C)N(C)C[C@@]54[C@H](OC(=O)CC=C(C)C)C[C@@H]32)C1 [Compound 14, holarrhesine] | 0.054 ± 0.038 | 119 ± 84 | 6.51 µg/mL and 14.3 µM | 120 ± 80 | 
15 | CC(C)=CCC(=O)O[C@@H]1C[C@H]2[C@@H](CC=C3C[C@@H](N(C)C)CC[C@@]32C)[C@@H]2CC[C@@H]3[C@H](C)N(C)C[C@]312 [Compound 15, holarrhetine] | 0.777 ± 0.182 |  | 45.8 µg/mL and 97.7 µM | 1660 ± 390 | 
16 | CN[C@H]1CC[C@@]2(C)C(=CC[C@H]3[C@@H]4CC[C@@H]5[C@H](C)N(C)C[C@@]54[C@H](O)C[C@@H]32)C1 [Compound 16, holarrheline] | 2.94 ± 0.37 |  | 64.8 µg/mL and 181 µM | 8210 ± 1030 | 
17 | C[C@H]1[C@H]2CC[C@H]3[C@@H]4CC=C5C[C@@H](N(C)C)CC[C@]5(C)[C@H]4C[C@@H](O)[C@]23CN1C [Compound 17, holarrhenine] | 7.78 ± 2.23 |  | 46.4 µg/mL and 125 µM | 20900 ± 6000 | 
18 | C[C@]12C=CC(=O)C=C1CC[C@@H]1[C@@H]2[C@@H](O)C[C@]2(C)C(=O)CC[C@@H]12 [Compound 18, kurchinin] | 3.64 ± 0.21 |  |  |  | 
19 | Nc1nc(N)nc(Nc2ccc([As]3SCC(CO)S3)cc2)n1 (stereo not shown) [melarsoprol, reference compound] |  |  |  |  | IC50 ([1]; Trypanosoma brucei, read-out: Tbr IC50): 0.002 ± 0.001 µg/mL
20 | COc1cc([C@@H]2c3cc4c(cc3[C@H](O)[C@H]3COC(=O)[C@H]23)OCO4)cc(OC)c1OC [podophyllotoxin, reference compound] |  |  |  |  | IC50 ([2]; Table 1, Leaves, L6 cells (c: one replicate), read-out: Cytotox. L6 IC50): 0.004 ± 0.001 µg/mL
21 | N^3-isopentenyl adenine [Compound 19] |  |  |  |  | Tbr (STIB900) IC50 ([1]; isolated compounds, average of two determinations ± absolute deviation): 5.03 ± 0.54 µg/mL; Cytotoxicity L6 Cells IC50 [3]: 61.30 ± 4.24 µg/mL; IC50 [3]: 302000 ± 6800 nM
